Measurements taken from ChEMBL document CHEMBL1150777, “Chemically induced dimerization of human nonpancreatic secretory phospholipase A2 by bis-indole derivatives” (J Med Chem, 2008).

Molecular target: T1, Phospholipase A2, membrane associated (Homo sapiens, UniProt P14555)
T1 sequence (P14555 whole entry): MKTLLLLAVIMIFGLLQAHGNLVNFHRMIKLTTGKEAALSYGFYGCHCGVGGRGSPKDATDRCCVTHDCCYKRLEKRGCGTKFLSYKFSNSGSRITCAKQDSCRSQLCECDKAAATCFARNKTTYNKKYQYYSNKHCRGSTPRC
Assay: Inhibition of human nonpancreatic secretory phospholipase A2

`COc1ccc2c(c1)c(CC(N)=O)c(C)n2Cc1ccccc1OCCCCCCOc1ccccc1Cn1c(C)c(CC(N)=O)c2cc(OC)ccc21` and `COc1ccc2c(c1)c(CC(N)=O)c(C)n2Cc1ccccc1OCCCCCCCOc1ccccc1Cn1c(C)c(CC(N)=O)c2cc(OC)ccc21` are within 1.5-fold of each other in IC50: 39 nM for the first, 52 nM for the second.

`COc1ccc2c(c1)c(CC(N)=O)c(C)n2Cc1ccccc1OCCCOc1ccccc1Cn1c(C)c(CC(N)=O)c2cc(OC)ccc21` and `COc1ccc2c(c1)c(CC(N)=O)c(C)n2Cc1ccccc1OCCCCOc1ccccc1Cn1c(C)c(CC(N)=O)c2cc(OC)ccc21` are within 1.5-fold of each other in IC50: 48 nM for the first, 60 nM for the second.

Going from `COc1ccc2c(c1)c(CC(N)=O)c(C)n2Cc1ccccc1` to `CCCCCOc1ccccc1Cn1c(C)c(CC(N)=O)c2cc(OC)ccc21`, the IC50 falls from 540 nM to 120 nM (4.5-fold).

`COc1ccc2c(c1)c(CC(N)=O)c(C)n2Cc1ccccc1OCCCCCCCCOc1ccccc1Cn1c(C)c(CC(N)=O)c2cc(OC)ccc21` and `COc1ccc2c(c1)c(CC(N)=O)c(C)n2Cc1ccccc1OCCCCCCCCCOc1ccccc1Cn1c(C)c(CC(N)=O)c2cc(OC)ccc21` are within 1.5-fold of each other in IC50: 58 nM for the first, 49 nM for the second.

`COc1ccc2c(c1)c(CC(N)=O)c(C)n2Cc1cccc(OCCCCCOc2cccc(Cn3c(C)c(CC(N)=O)c4cc(OC)ccc43)c2)c1` and `COc1ccc2c(c1)c(CC(N)=O)c(C)n2Cc1ccc(OCCCCCOc2ccc(Cn3c(C)c(CC(N)=O)c4cc(OC)ccc43)cc2)cc1` are within 1.5-fold of each other in IC50: 76 nM for the first, 86 nM for the second.

For `COc1ccc2c(c1)c(CC(N)=O)c(C)n2Cc1ccccc1OCCCCCOc1ccccc1Cn1c(C)c(CC(N)=O)c2cc(OC)ccc21`, the IC50 was 24 nM.
